In US4882326A, “Piperidine compounds and pharmaceutical uses thereof” (Yoshitomi Pharmaceutical Industries, Ltd., priority 1987, dated 1989):

Assays:
[1] = molecular target: T1, angiotensin I converting enzyme (Cavia porcellus, UniProt H0UWL7); experiment: Inhibitory effect on angiotensin I-induced constriction in isolated guinea pig ileum (indirect inhibition of angiotensin I converting enzyme); type: cell-based; settings: angiotensin I 10^-8 M, 37° C.
T1 construct: isolated guinea pig ileum preparation; from tissue; host or cells: isolated guinea pig ileum
T1 sequence (H0UWL7 33-1302): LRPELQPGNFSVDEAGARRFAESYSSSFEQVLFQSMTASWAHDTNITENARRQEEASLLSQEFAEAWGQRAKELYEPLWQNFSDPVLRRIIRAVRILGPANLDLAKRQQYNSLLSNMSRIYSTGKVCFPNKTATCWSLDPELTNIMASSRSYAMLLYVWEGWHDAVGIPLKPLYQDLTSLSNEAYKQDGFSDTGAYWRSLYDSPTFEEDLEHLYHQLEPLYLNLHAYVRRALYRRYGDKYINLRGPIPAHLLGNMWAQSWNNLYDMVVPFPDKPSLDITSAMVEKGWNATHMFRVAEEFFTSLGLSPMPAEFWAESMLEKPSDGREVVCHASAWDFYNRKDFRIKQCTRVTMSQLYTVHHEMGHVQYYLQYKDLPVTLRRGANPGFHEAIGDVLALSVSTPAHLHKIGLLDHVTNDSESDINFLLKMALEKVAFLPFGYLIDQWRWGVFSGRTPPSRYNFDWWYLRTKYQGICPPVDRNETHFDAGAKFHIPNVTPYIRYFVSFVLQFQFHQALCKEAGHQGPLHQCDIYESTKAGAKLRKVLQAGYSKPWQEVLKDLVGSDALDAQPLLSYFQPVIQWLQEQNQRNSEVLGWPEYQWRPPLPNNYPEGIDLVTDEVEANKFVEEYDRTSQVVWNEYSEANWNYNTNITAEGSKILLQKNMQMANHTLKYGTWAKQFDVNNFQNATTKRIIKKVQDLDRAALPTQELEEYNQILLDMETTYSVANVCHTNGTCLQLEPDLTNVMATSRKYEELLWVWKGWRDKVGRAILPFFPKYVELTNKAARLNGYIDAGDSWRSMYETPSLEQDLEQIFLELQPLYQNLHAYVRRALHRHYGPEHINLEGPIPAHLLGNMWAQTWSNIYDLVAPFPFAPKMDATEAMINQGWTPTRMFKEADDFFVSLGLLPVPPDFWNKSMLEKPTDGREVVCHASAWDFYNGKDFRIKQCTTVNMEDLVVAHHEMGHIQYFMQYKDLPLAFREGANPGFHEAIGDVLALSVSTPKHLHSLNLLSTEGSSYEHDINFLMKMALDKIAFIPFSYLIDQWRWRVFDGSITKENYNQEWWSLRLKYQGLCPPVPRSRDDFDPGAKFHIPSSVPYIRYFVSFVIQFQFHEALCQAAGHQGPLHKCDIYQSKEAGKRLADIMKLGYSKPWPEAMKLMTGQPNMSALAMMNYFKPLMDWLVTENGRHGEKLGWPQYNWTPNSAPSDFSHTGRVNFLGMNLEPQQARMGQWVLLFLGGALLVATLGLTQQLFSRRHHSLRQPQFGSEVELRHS
Source text: Experiment 1: Inhibitory effect on angiotensin I-induced constriction in isolated guinea pig ileum
According to the method of Goldberg et al (J. Pharmacol. Exp. Ther., vol. 204, No. 2, p. 271, 1977), the inhibitory effect on angiotensin I converting enzyme was indirectly examined as an antagonistic activity on angiotensin I-induced constriction in isolated guinea pig ileum preparation. Guinea pig ileum preparations, in the presence of 1 g load, were suspended in Magnus bath filled with Kreb's solution containing atropine and maintained at 37° C. by warming, and then bubbled with a mixed gas (95%O2 +5%CO2). Angiotensin I (10^-8 M)-induced constrictions were measured with a recorder through a force displacement transducer (Nippon Denki San-ei, 45169A). Inhibitory rates of the test compounds were indicated on a graph and the rate of 50% inhibition (IC50) was calculated.

[2] = test system: angiotensin I-induced pressor response; experiment: Effect on angiotensin I-induced pressor response in rats; type: in vivo, Wistar male rats; settings: 10 mg/kg, p.o.; for Inhibitory rate (%) of pressor response to angiotensin I at each hour: angiotensin I 300 ng/kg i.v., mean value±standard error
Protocol: Experiment 2: Effect on angiotensin I-induced pressor response in rats
Groups of 10 Wistar male rats weighing about 200 g were implanted with a catheter into the left carotid artery and femoral vein under ether anesthesia. More than 24 hours after operation, mean blood pressure was measured from the carotid artery with a pressure transducer (Nippon Denki San-ei, 142 type). Angiotensin I (300 ng/kg) was injected to the left femoral vein through catheter to induce pressor response. Then 10 mg/kg of the test compounds, suspended in 0.5% methylcellulose solution, were given orally. At every hour between 1 to 10 hours, and 24 hours after the administration, the pressor response was examined by the injection of angiotensin I. The inhibitory rate (%) against the pressor responses was determined and the results were summarized in Table 1. The values in the Table represent "mean value±standard error".

O.O=C(O)CN1C(=O)C(N[C@@H](CSCCC2CCNCC2)C(=O)O)CCc2ccccc21 (stereo partly drawn) [Example 7, 3-[1(R)-carboxy-2-{2-(4-piperidyl)ethylthio}ethyl]amino-2-oxo-2,3,4,5-tetrahydro-1H-1-benzazepine-1-acetic acid monohydrate]
IC50 [1]: 1.6 nM
inhibitory action against the angiotensin I-induced pressor response, strength and duration vs CV-5975 ([2]; rats, comparison in words): exhibits stronger inhibitory action against the angiotensin I-induced pressor response and more long-lasting effect than C-5975
Inhibitory rate (%) of pressor response to angiotensin I at each hour ([2]; 1 hour): -96 ± 2%
Inhibitory rate (%) of pressor response to angiotensin I at each hour ([2]; 2 hours): -100 ± 0%
Inhibitory rate (%) of pressor response to angiotensin I at each hour ([2]; 3 hours): -94 ± 5%
Inhibitory rate (%) of pressor response to angiotensin I at each hour ([2]; 4 hours): -97 ± 3%
Inhibitory rate (%) of pressor response to angiotensin I at each hour ([2]; 5 hours): -100 ± 0%
Inhibitory rate (%) of pressor response to angiotensin I at each hour ([2]; 6 hours): -100 ± 0%
Inhibitory rate (%) of pressor response to angiotensin I at each hour ([2]; 7 hours): -100 ± 0%
Inhibitory rate (%) of pressor response to angiotensin I at each hour ([2]; 8 hours): -98 ± 2%
Inhibitory rate (%) of pressor response to angiotensin I at each hour ([2]; 9 hours): -100 ± 0%
Inhibitory rate (%) of pressor response to angiotensin I at each hour ([2]; 10 hours): -90 ± 6%
Inhibitory rate (%) of pressor response to angiotensin I at each hour ([2]; 24 hours): -77 ± 10%

O=C(O)CN1C(=O)[C@@H](N[C@@H](CCCCC2CCNCC2)C(=O)O)CSc2ccccc21 [CV-5975, 3(R)-[1(S)-carboxy-5-(4-piperidyl)pentyl]amino-4-oxo-2,3,4,5-tetrahydro-1,5-benzothiazepine-5-acetic acid, reference compound]
IC50 [1]: 3.5 nM
Inhibitory rate (%) of pressor response to angiotensin I at each hour ([2]; 1 hour): -95 ± 3%
Inhibitory rate (%) of pressor response to angiotensin I at each hour ([2]; 2 hours): -95 ± 3%
Inhibitory rate (%) of pressor response to angiotensin I at each hour ([2]; 3 hours): -89 ± 7%
Inhibitory rate (%) of pressor response to angiotensin I at each hour ([2]; 4 hours): -85 ± 7%
Inhibitory rate (%) of pressor response to angiotensin I at each hour ([2]; 5 hours): -82 ± 8%
Inhibitory rate (%) of pressor response to angiotensin I at each hour ([2]; 6 hours): -89 ± 6%
Inhibitory rate (%) of pressor response to angiotensin I at each hour ([2]; 7 hours): -86 ± 6%
Inhibitory rate (%) of pressor response to angiotensin I at each hour ([2]; 8 hours): -80 ± 7%
Inhibitory rate (%) of pressor response to angiotensin I at each hour ([2]; 9 hours): -84 ± 7%
Inhibitory rate (%) of pressor response to angiotensin I at each hour ([2]; 10 hours): -75 ± 9%
Inhibitory rate (%) of pressor response to angiotensin I at each hour ([2]; 24 hours): -45 ± 10%
